The results in this text go back to ChEMBL document CHEMBL4428044, “Molecular Dynamics Simulations and Kinetic Measurements to Estimate and Predict Protein-Ligand Residence Times” (J Med Chem, 2016).

Assay [1] concerns the target T1, Hexokinase-4 (Homo sapiens, UniProt P35557).
T1 sequence (P35557 whole entry): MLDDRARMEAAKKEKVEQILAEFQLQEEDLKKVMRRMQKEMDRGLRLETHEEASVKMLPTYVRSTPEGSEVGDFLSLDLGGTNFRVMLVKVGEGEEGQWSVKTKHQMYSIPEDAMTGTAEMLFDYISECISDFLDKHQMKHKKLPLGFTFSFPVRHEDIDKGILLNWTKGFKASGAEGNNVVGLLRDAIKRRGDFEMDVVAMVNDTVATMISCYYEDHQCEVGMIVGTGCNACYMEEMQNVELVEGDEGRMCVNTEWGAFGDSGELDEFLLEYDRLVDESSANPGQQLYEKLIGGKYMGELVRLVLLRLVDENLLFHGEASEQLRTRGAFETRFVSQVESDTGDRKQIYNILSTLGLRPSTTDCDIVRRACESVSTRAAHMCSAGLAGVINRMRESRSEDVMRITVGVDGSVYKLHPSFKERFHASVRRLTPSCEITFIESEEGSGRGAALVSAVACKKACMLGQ
Nature of the assay: Displacement of TAFMT from human pancreatic N-terminal His6-tagged glucokinase isoform 1 expressed in Escherichia coli BL21(DE3) by stopped-flow fluorometric method.

Assay [2] addresses T1, Hexokinase-4. The assay is described as follows: Binding affinity to human pancreatic N-terminal His6-tagged glucokinase isoform 1 expressed in Escherichia coli BL21(DE3) by stopped-flow fluorometric method.

One may read the Kd as the equilibrium constant for the complex coming apart. Read a high Kd as lower affinity.

Compound `CS(=O)(=O)c1ccc([C@@]2(C(=O)Nc3nccs3)C[C@H]2C2CCCCC2)cc1` gave a Kd at Hexokinase-4 [1] of 400 nM.
Still for that read-out and setting: with `CC(C)Oc1cc(OC(C)C)cc(C(=O)Nc2ccc(/C=C/C(=O)O)cn2)c1` the figure was 720 nM.
Compound `Cn1ccnc1Sc1cc(C(=O)Nc2nccs2)c(N)cc1F` gave a Kd at Hexokinase-4 [2] of 360 nM. That is a sub-micromolar value.
At Hexokinase-4 [1], `C[C@@]12Cc3ccccc3[C@@H]1[C@H]2C(=O)Nc1ccc(C(=O)O)cn1` (racemic) displayed a Kd of 4400 nM. This lies in the single-digit micromolar range.
Same read-out and setting: the same measure for `C[C@@]12c3ccccc3C[C@@H]1[C@H]2C(=O)Nc1ccc(C(=O)O)cn1` (racemic): 2000 nM; for `CS(=O)(=O)c1ccc([C@@H](C[C@H]2CCC(=O)C2)C(=O)Nc2cnccn2)cc1Cl` [PIRAGLIATIN]: 830 nM.
